Measurements as given in article PMC6539495, “Anti-Cancer Activity of Novel Dihydrotestosterone-Derived Ring A-Condensed Pyrazoles on Androgen Non-Responsive Prostate Cancer Cell Lines” (International Journal of Molecular Sciences, 2019).
Where two headings read alike, the source gives them in different places.

What was measured:
HeLa cells = experiment: MTT cell viability assay on HeLa cervical cancer cells; type: cell-based, human; conditions: 72 hours; for IC50: ± SD
MRC-5 cells [1] = experiment: MTT cell viability assay on non-cancerous MRC-5 fibroblasts; type: cell-based; conditions: for Mean values (%) of primary growth inhibitory screen (viability in %), MRC-5 / IC50: 72 hours, MTT; for IC50: ± SD
MCF-7 cells = experiment: MTT cell viability assay on MCF-7 breast cancer cells; type: cell-based, human; conditions: for IC50: ± SD
DU 145 cells [2] = experiment: MTT cell viability assay on DU 145 prostate cancer cells; type: cell-based, human; conditions: for IC50: ± SD
PC-3 cells [3] = experiment: MTT cell viability assay on PC-3 prostate cancer cells; type: cell-based, human; conditions: for Mean values (%) of primary growth inhibitory screen (viability in %), PC-3 / IC50: 72 hours, MTT; for antiproliferative potency against PC-3 prostate cancer cells compared to MRC-5 non-cancerous fibroblasts: primary screen; for IC50: ± SD
MDA-MB-231 cells = experiment: MTT cell viability assay on MDA-MB-231 breast cancer cells; type: cell-based, human; conditions: for IC50: ± SD
PC-3 cells [4] = experiment: Annexin V/PI apoptosis detection assay (flow cytometry); type: cell-based, human; conditions: for percentage of annexin V-positive cells (Q2 + Q3): PC-3, 5 µM, 48-hour treatment
Procedure: PC-3 cells were seeded at 2 × 10^6 cells/well density in 6-well plates. On the following day cells were treated with 5 µM of either compound 4e or 4j or with 200 µM of cisplatin (Accord Healthcare Ltd., Middlesex, UK). After 48-hour treatment, cells were collected and a Dead Cell Apoptosis Kit containing AnnexinV-FITC and propidium iodide (Life Technologies-Hungary, Budapest, Hungary) was used according to the manufacturer’s recommendation. Fluorescence intensities of at least 10,000 cells/sample were measured by FACSCalibur™ (BD Biosciences, Franklin Lakes, CA, USA) and data were analyzed by FlowJo V10 software (BD Biosciences, Franklin Lakes, NJ, USA). Experiments were repeated three times using triplicates.

[5] = test system: caspase 3 mRNA in PC-3 cells; experiment: RT-qPCR of caspase 3 mRNA; type: cell-based, human; conditions: PC-3, 48 h; 4e, 4j 5 µM; cisplatin 200 µM; GAPDH reference
Procedure: (§1) PC-3 cells were seeded at 2 × 10^6 cells/well density in 6 well plates. On the following day cells were treated with 5 µM of either compound 4e or 4j or with 200 µM of cisplatin. Cells were collected 48-hours post-treatment and total cellular RNA was isolated using RNeasy® Mini Kit (QIAGEN, Hilden, Germany) according to the manufacturer’s recommendation. RNA (2 µg) was reverse transcribed (TaqMan® Reverse Transcription kit, Applied Biosystems, Foster City, CA, USA) in 50 µL total volume. PCR reactions were performed on PicoReal™ Real-time PCR (Thermo Scientific, Walthan, MA, USA) using SYBRGreen qPCR Master Mix (Thermo Scientific) with an input of 1 µL cDNA. Each primer (Table 3) was used at 200 nM concentration. Relative transcript levels were determined by the ΔΔCt analysis using GAPDH as reference gene. Experiments were repeated three times with three biological replicates.

Bax mRNA in PC-3 cells = experiment: RT-qPCR of Bax mRNA; type: cell-based, human; conditions: PC-3, 48 h; 4e, 4j 5 µM; cisplatin 200 µM; GAPDH reference
Procedure: as §1

[6] = Solubility in DMSO for pharmacological studies; type: physicochemical; conditions: final concentration of 5 mM
Procedure: To perform pharmacological studies, the synthesized DHT derivatives were dissolved in DMSO (dimethyl sulfoxide) in a final concentration of 5 mM. One compound (5h) was non-soluble in the applied solvent, thus was excluded from the pharmacological evaluations. […] For this, PC-3 and DU 145 prostate cancer cells, MCF-7 and MDA-MB-231 breast cancer cells, HeLa cervical cancer cells and non-cancerous MRC-5 fibroblasts were used. […] On the heat map representing viability results following treatments with DHT derivatives at 30 µM concentration a remarkable structure–function relationship can be recognized (Figure 3).

PC-3 cells [7] = test system: PC-3 cells; set-up: method as in PMID 28595942; conditions: assessed previously; cited from earlier work
MRC-5 cells [8] = test system: MRC-5 cells; set-up: method as in PMID 28595942; conditions: assessed previously; cited from earlier work
DU 145 cells [9] = test system: DU 145 cells; set-up: method as in PMID 28595942; conditions: assessed previously; cited from earlier work

SMILES	Mean values (%) of primary growth inhibitory screen (viability in %), HeLa (HeLa cells; 10 µM) [%]	Mean values (%) of primary growth inhibitory screen (viability in %), HeLa (HeLa cells; 30 µM) [%]	Mean values (%) of primary growth inhibitory screen (viability in %), MRC-5 (MRC-5 cells [1]; 10 µM) [%]	Mean values (%) of primary growth inhibitory screen (viability in %), MRC-5 (MRC-5 cells [1]; 30 µM) [%]	Mean values (%) of primary growth inhibitory screen (viability in %), MCF-7 (MCF-7 cells; 10 µM, 72 hours) [%]	Mean values (%) of primary growth inhibitory screen (viability in %), MCF-7 (MCF-7 cells; 30 µM, 72 hours) [%]	melting point [°C]	Mean values (%) of primary growth inhibitory screen (viability in %), DU 145 (DU 145 cells [2]; 10 µM, 72 hours) [%]	Mean values (%) of primary growth inhibitory screen (viability in %), DU 145 (DU 145 cells [2]; 30 µM, 72 hours) [%]	Mean values (%) of primary growth inhibitory screen (viability in %), PC-3 (PC-3 cells [3]; 10 µM) [%]	antiproliferative potency against PC-3 prostate cancer cells compared to MRC-5 non-cancerous fibroblasts (PC-3 cells [3]; 10 µM)	Mean values (%) of primary growth inhibitory screen (viability in %), PC-3 (PC-3 cells [3]; 30 µM) [%]	Mean values (%) of primary growth inhibitory screen (viability in %), MDA-MB-231 (MDA-MB-231 cells; 10 µM, 72 hours) [%]	Mean values (%) of primary growth inhibitory screen (viability in %), MDA-MB-231 (MDA-MB-231 cells; 30 µM, 72 hours) [%]	percentage of annexin V-positive cells (Q2 + Q3) (PC-3 cells [4]) [%]	caspase 3 mRNA expression level compared to untreated control [5]	IC50 (HeLa cells) [µM]	IC50 (MRC-5 cells [1]) [µM]	IC50 (MCF-7 cells; 72 hours) [µM]	Bax mRNA expression level compared to untreated control (Bax mRNA in PC-3 cells)	also measured
Cc1c2c(nn1-c1ccccc1)CC1CCC3C4CCC(O)C4(C)CCC3C1(C)C2 (stereo not drawn) [4a, 17β-Hydroxy-1′-phenyl-5′-methylpyrazolo[3′,4′:3,2]-5α-androstane]	49.6	46.7	68.3	1.2	57.1	5.5	241 to 245	67.3	1.5	36.8	significantly higher	3.2	75.0	32.1	–	–	–	–	–	–	IC50 (HeLa cells; Homo sapiens, HeLa): 16.9 ± 3.7 µM; IC50 (MRC-5 cells [1]; Homo sapiens, MRC5): 23.7 ± 2.3 µM; IC50 (MCF-7 cells; Homo sapiens, MCF7, 72 hours): 12.9 ± 0.1 µM; IC50 (DU 145 cells [2]; Homo sapiens, DU-145, 72 hours): 9.2 ± 1.2 µM; IC50 (PC-3 cells [3]; Homo sapiens, PC-3): 5.6 ± 1.2 µM; IC50 (MDA-MB-231 cells; Homo sapiens, MDA-MB-231, 72 hours): 15.3 ± 3.4 µM
COc1ccc(-n2nc3c(c2C)C[C@@]2(C)[C@@H](CC[C@@H]4[C@@H]2CC[C@]2(C)[C@@H](O)CC[C@@H]42)C3)cc1 [4e, 17β-Hydroxy-1′-(4″-methoxyphenyl)-5′-methylpyrazolo[3′,4′:3,2]-5α-androstane]	31.7	15.1	71.2	28.8	20.9	14.0	–	23.3	5.5	28.4	–	10.8	35.2	13.6	33.96	significantly increased	8.5 ± 0.6	8.6 ± 1.3	5.5 ± 0.6	significantly increased	specificity in cancer cell toxicity (cancer cell lines vs MRC-5) (MRC-5 cells [1]; primary screen, manifested already at 10 µM): utmost specificity; IC50 (DU 145 cells [2]; 72 hours): 3.6 ± 1.2 µM; IC50 (PC-3 cells [3]): 4.2 ± 1.1 µM; IC50 (MDA-MB-231 cells; 72 hours): 6.6 ± 0.9 µM
Cc1c2c(nn1-c1ccc([N+](=O)[O-])cc1)CC1CCC3C4CCC(O)C4(C)CCC3C1(C)C2 (stereo not drawn) [4j, 17β-Hydroxy-1′-(4″-nitrophenyl)-5′-methylpyrazolo[3′,4′:3,2]-5α-androstane]	60.5	64.6	99.1	99.8	55.8	49.6	–	82.8	60.4	38.2	significantly higher	41.6	83.8	80.6	37.89	significantly increased	> 30	> 30	18.2 ± 3.9	significantly increased	IC50 (DU 145 cells [2]; 72 hours): 19.7 ± 1 µM; antiproliferative potency against PC-3 prostate cancer cells compared to MRC-5 non-cancerous fibroblasts (PC-3 cells [3]; 30 µM): significantly higher; IC50 (PC-3 cells [3]): 5.6 ± 1.1 µM; IC50 (MDA-MB-231 cells; 72 hours): > 30 µM
Cc1c2c(nn1-c1ccccc1)C[C@@H]1CC[C@@H]3[C@H](CC[C@]4(C)C(=O)CC[C@@H]34)[C@@]1(C)C2 [5a, 1′-Phenyl-5′-methylpyrazolo[3′,4′:3,2]-5α-androst-17-one]	70.5	26.2	78.0	3.9	73.3	7.5	247 to 250	80.1	4.0	47.7	–	7.6	85.0	15.2	–	–	–	–	–	–	–
Cc1c2c(nn1-c1ccc(Br)cc1)CC1CCC3C4CCC(=O)C4(C)CCC3C1(C)C2 (stereo not drawn) [5h, 1′-(4″-Bromophenyl)-5′-methylpyrazolo[3′,4′:3,2]-5α-androst-17-one]	–	–	–	–	–	–	–	–	–	–	–	–	–	–	–	–	–	–	–	–	solubility in the applied solvent (DMSO) [6]: non-soluble
N.N.[Cl][Pt][Cl] [cisplatin, reference compound]	–	–	–	–	–	–	–	–	–	–	–	–	–	–	–	significantly increased	–	–	–	significantly increased	apoptosis induction (annexin V/PI), in words (PC-3 cells [4]; PC-3, 200 µM cisplatin, 48 h): prominent apoptosis; IC50 (PC-3 cells [7]): 230.9 ± 1.37 µM; IC50 (MRC-5 cells [8]): 237.3 ± 1.16 µM; IC50 (DU 145 cells [9]): 126.8 ± 1.18 µM
